Results as given in publication PMC1950546 (Nucleic Acids Research, 2007).
pIC50: −log10 of the molar value. Where a SMILES comes first, the peptide text is derived from it.

Tests used:
PrrC = details: stated in the introduction; cited from earlier work
[1] = target: T1, PrrC anticodon nuclease (ACNase), His6-tagged D222E mutant (Escherichia coli, UniProt P17223, D222E); assay: ACNase assay: inhibition of PrrC-catalyzed cleavage of tRNA^Lys or ASL analogs; format: biochemical
T1 sequence (P17223 1-396 D222E): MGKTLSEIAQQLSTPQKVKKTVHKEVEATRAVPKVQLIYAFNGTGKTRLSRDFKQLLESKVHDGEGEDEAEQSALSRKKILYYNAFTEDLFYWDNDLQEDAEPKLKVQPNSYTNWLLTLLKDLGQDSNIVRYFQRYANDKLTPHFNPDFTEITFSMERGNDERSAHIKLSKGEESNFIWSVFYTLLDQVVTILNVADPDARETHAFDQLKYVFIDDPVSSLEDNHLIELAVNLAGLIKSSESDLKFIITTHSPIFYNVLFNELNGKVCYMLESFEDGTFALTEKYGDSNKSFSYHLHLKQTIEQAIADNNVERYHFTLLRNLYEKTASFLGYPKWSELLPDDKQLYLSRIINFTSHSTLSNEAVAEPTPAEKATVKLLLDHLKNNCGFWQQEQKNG

Structure (SMILES)	Affinity for PrrC (range) (PrrC)	pIC50 [1]
Nc1ncnc2c1ncn2[C@@H]1O[C@H](COP(=O)(O)OP(=O)(O)OP(=O)(O)O)[C@@H](O)[C@H]1O [ATP]	mM-range	
Nc1nc2c(ncn2[C@@H]2O[C@H](COP(=O)(O)OP(=O)(O)OP(=O)(O)O)[C@@H](O)[C@H]2O)c(=O)[nH]1 [GTP]	mM-range	
CC(=O)N[C@@H](CCCCN)C(=O)N[C@@H](Cc1ccc(O)cc1)C(=O)NCC(=O)N[C@@H](CC(=O)O)C(=O)N[C@@H](CO)C(=O)N[C@@H](CC(N)=O)C(=O)N[C@@H](CCCCN)C(=O)N[C@@H](CO)C(=O)N[C@@H](Cc1ccccc1)C(=O)N[C@@H](CO)C(=O)N[C@@H](Cc1ccc(O)cc1)C(N)=O [LARP, Ac-KYGDSNKSFSY-NH2] (Ac-KYGDSNKSFSY-NH2)		~4.00
